The test system of one series is M. tuberculosis. The experiment in a line: Activity of the main metabolite (test not described). As to conditions: metabolite produced in the presence of M. tuberculosis.
For the next series, the target named is T1, CYP2A6 (Homo sapiens, UniProt P11509).
T1 construct: Standard incubation mixtures of 0.5 ml contained microsomal protein (0.1–0.5 mg); from tissue; host or cells: pooled human liver microsomes (ten donors)
T1 sequence (P11509 1-494): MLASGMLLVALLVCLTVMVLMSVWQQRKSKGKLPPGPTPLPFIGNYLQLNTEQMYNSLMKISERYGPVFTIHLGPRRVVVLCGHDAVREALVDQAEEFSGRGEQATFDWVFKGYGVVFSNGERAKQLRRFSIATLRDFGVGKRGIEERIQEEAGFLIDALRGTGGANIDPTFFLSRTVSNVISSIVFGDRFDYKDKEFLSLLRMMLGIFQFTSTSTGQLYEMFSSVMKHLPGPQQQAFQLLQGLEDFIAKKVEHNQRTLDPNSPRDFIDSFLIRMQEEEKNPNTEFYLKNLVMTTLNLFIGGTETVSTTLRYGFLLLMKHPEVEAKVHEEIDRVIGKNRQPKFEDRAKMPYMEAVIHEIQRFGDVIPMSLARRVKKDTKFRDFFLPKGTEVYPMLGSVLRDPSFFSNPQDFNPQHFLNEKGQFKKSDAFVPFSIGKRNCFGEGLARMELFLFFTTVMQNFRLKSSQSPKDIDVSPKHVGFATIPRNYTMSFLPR
The experiment in a line: Coumarin 7-hydroxylation in human liver microsomes. Type of series: in vitro ADME. The settings on record: 100 μM; 2 μM coumarin. For orientation: Microsomes from liver hold many membrane-bound enzymes, among them those of drug oxidation.

The target of the next series is T2, CYP2E1 (Homo sapiens, UniProt P05181).
T2 construct: Standard incubation mixtures of 0.5 ml contained microsomal protein (0.1–0.5 mg); from tissue; host or cells: pooled human liver microsomes (ten donors)
T2 sequence (P05181 whole entry): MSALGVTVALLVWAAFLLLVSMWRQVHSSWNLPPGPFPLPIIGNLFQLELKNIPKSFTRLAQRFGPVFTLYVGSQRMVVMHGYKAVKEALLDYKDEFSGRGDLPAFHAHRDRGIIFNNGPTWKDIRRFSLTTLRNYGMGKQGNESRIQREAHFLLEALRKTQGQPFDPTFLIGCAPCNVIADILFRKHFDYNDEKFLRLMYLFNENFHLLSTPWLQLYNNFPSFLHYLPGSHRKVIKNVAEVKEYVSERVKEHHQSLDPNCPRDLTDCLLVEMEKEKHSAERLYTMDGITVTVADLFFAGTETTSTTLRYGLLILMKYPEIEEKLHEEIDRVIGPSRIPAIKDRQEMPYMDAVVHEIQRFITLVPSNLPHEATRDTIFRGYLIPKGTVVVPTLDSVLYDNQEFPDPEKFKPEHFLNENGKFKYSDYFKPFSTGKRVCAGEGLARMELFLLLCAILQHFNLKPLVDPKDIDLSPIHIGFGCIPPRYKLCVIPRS
The experiment in a line: Chlorzoxazone 6-hydroxylation in human liver microsomes. Type of series: in vitro ADME. As to conditions: 100 μM; 100 μM chlorzoxazone.

A further series relates to E. coli WP2 uvr A. Nature of the series: Bacterial reverse mutation (BRM) test. Type of series: cell-based. The method, then:
(§1) The BRM test was performed in accordance with OECD Guideline 471 using Salmonella tyiphimurium TA98, TA100, TA1535, and TA1537, and Escherichia coli WP2 uvrA [11]. Each bacterial strain was pre-cultured at 37 °C for 18 h using a nutrient broth (Nissui Pharmaceutical; http://www.nissui-pharm.co.jp/index_e.html). After adjustment to 2.4 at OD660 nm, each bacterial suspension was added to a test tube containing the designated compound in the absence or presence of rat liver microsome (S9) mix. After a 20-min incubation at 37 °C, top agar was added to each test tube and the contents were poured into minimum essential medium (Oriental Yeast; http://www.oyc.co.jp/e/index.htm). The number of revertants was counted 48 h after incubation at 37 °C.

For a further series, the system named is S. typhimurium TA100. Nature of the series: Bacterial reverse mutation (BRM) test. Type of series: cell-based. The method, then: as §1
The next series concerns S. typhimurium TA1537. Nature of the series: Bacterial reverse mutation (BRM) test. Type of series: cell-based. As to conditions: S9 mix +; positive control 2AA 2 μg/plate. The method, then:
as §1

Another series relates to S. typhimurium TA1535. Nature of the series: Bacterial reverse mutation (BRM) test. The settings on record: S9 mix +; positive control 2AA 2 μg/plate. Type of series: cell-based. The method, then:
as §1

The next series has as its system S. typhimurium TA98. The experiment in a line: Bacterial reverse mutation (BRM) test. Type of series: cell-based. As to the method: as §1
Series [1] deals with mycolic acid synthesis in M. bovis BCG. Nature of the series: microbe, parasite or virus in culture. Type of series: cell-based. The settings on record: Mycobacterium tuberculosis variant bovis BCG, BCG.
The subject of series [2] is M. tuberculosis ATCC 35838 (H37Rv-R-R). The experiment in a line: microbe, parasite or virus in culture. As to conditions: Mycobacterium tuberculosis, 336 h. Type of series: cell-based.
For series [3], the system named is clinically isolated M. tuberculosis. Nature of the series: microbe, parasite or virus in culture. Type of series: cell-based. The settings on record: Mycobacterium tuberculosis; read-out: MIC90.
The nature of series [4]: Plasma levels in an experimental mouse model of TB. As to conditions: in vivo, po.
The test system of series [5] is M. tuberculosis ATCC 35820 (H37Rv-S-R). The experiment in a line: microbe, parasite or virus in culture. As to conditions: Mycobacterium tuberculosis, 336 h. Type of series: cell-based.
Series [6] concerns M. tuberculosis ATCC 35812 (Kurono). The experiment in a line: Susceptibility testing (agar dilution MIC). Type of series: cell-based. The settings on record: Mycobacterium tuberculosis, ATCC35812, 336 h. Background: In agar dilution the substance is mixed into plates at graded concentrations.
The subject of the next series is M. tuberculosis Kurono. Nature of the series: Therapeutic efficacy in an experimental mouse model of chronic TB. Type of series: in vivo, ICR mice. The settings on record: for Log of Viable Counts/Lung: 672 h.
In series [7] the test system is intracellular M. tuberculosis H37Rv in THP-1 cells. The experiment in a line: Activity against intracellular mycobacteria, 4-h pulsed exposure. Type of series: cell-based, M. tuberculosis; human THP-1 cells. As to conditions: further 68-h culture.
Series [8] deals with M. tuberculosis ATCC 35837 (H37Rv-E-R). Nature of the series: microbe, parasite or virus in culture. Type of series: cell-based. The settings on record: Mycobacterium tuberculosis, 336 h.
Series [9] deals with M. tuberculosis ATCC 35822 (H37Rv-H-R). The experiment in a line: microbe, parasite or virus in culture. Type of series: cell-based. The settings on record: Mycobacterium tuberculosis, 336 h.
For series [10], the system named is M. tuberculosis ATCC 25618 (H37Rv). Nature of the series: Susceptibility testing (agar dilution MIC). Type of series: cell-based. As to conditions: Mycobacterium tuberculosis, 336 h.
Where [11] appears, read: S9 mix −, positive control AF-2 0.01 μg/plate.

Converted amounts (≈) assume the structure as drawn. Where two headings read alike, the source gives them in different places.

For the compound `CC1(COc2ccc(N3CCC(Oc4ccc(OC(F)(F)F)cc4)CC3)cc2)Cn2ccnc2O1` (stereo not shown) [desnitro-imidazooxazole], the “Activity of the main metabolite” value in the series on M. tuberculosis was “non-active”.
As for `CCN(CC)C(=S)S` [Diethyldithiocarbamate, diethyldithiocarbamate], the “Percent of Control” value at CYP2A6 is reported as 38.2% of Control; on CYP2E1 it was 55.0% of Control.
For `Nc1ccc2cc3ccccc3cc2c1` [2AA, 2-aminoanthracene], the Revertants/Plate in the series on E. coli WP2 uvr A (S9 mix +, positive control 2AA 10 μg/plate) was 33 1122 Revertants/Plate; with S. typhimurium TA100 (S9 mix +, positive control 2AA 1 μg/plate) it was 108 1103 Revertants/Plate; in the series with S. typhimurium TA1537 it was 81 238 Revertants/Plate; in the series on S. typhimurium TA1535 it was 6 188 Revertants/Plate; in the series with S. typhimurium TA98 (S9 mix +, positive control 2AA 0.5 μg/plate) it was 36 92 Revertants/Plate.
For orientation: IC50 means the concentration that inhibits the measured activity by half. By AUC(0-t) is commonly meant the area under the concentration-time curve up to a stated or last time point. The low end stands for low exposure, the high end for high exposure. One may read the Cmax as the peak of the concentration-time curve. As a reminder, the Tmax is the time at which the peak concentration occurs. Take `NNC(=O)c1ccncc1` [INH, isoniazid]: the concentration for half-maximal inhibition (IC50) in series [1] (1 h, read-out: IC50, Fatty acid) was over 4 µg/mL; in series [1] (1 h, read-out: IC50, Keto-mycolic acid) it was 0.69 µg/mL (≈ 5.03 µM); in series [1] (1 h, read-out: IC50, Methoxy-mycolic acid) it was 0.63 µg/mL (≈ 4.59 µM); in series [1] (1 h, read-out: IC50, α-Mycolic acid), 1.85 µg/mL (≈ 13.5 µM); in series [1] (read-out: IC50 values, all mycolic acid subclasses), 0.63 to 1.85 µg/mL (≈ 4.59 to 13.5 µM). Also, the MIC in series [2] was 0.1 µg/mL (≈ 0.729 µM); in [5], 0.1 µg/mL (≈ 0.729 µM); in series [6], 0.1 µg/mL (≈ 0.729 µM); in series [8], 0.2 µg/mL (≈ 1.46 µM); in series [9], over 100 µg/mL; in [10], 0.1 µg/mL (≈ 0.729 µM). Besides, the MIC90 in [3] came to 0.099 µg/mL (≈ 0.722 µM). This compound showed a concentration at 0.083 h in series [4] of 2170 ± 435 ng/mL. For the same compound, in series [4], the concentration at 0.25 h worked out at 3060 ± 779 ng/mL. This compound yielded a concentration at 0.5 h in [4] of 2280 ± 390 ng/mL. The concentration at 1 h in series [4] was found to be 1920 ± 478 ng/mL. The compound further registered a concentration at 2 h in series [4] of 740 ± 202 ng/mL. In [4], this compound returned a concentration at 4 h of 253 ± 57 ng/mL. This compound yielded an AUC(0-t) in series [4] (10 mg/kg) of 4550 ng·h/mL. The same compound came in with a Cmax in series [4] (10 mg/kg) of 3060 ng/mL. The time of peak concentration (Tmax) in series [4] (10 mg/kg) worked out at 15 min. The “Log of Viable Counts/Lung” value in the series on M. tuberculosis Kurono (1.25 mg/kg) is recorded as 6.702 ± 0.237^c:NS, d:NS; with M. tuberculosis Kurono (2.5 mg/kg), 5.751 ± 0.358^c:**, d:*; with M. tuberculosis Kurono (5 mg/kg), 4.944 ± 0.760^c:**, d:**; with M. tuberculosis Kurono (10 mg/kg), 4.434 ± 0.319^c:**, d:**; in the series with M. tuberculosis Kurono (20 mg/kg) it was 4.595 ± 0.452^c:**, d:**. The “Dose that could produce a CFU reduction of at least 95%” value with M. tuberculosis Kurono (lung, once daily for 28 d) is 5 mg/kg. Moreover, the “Dose groups that showed a significant decrease in pulmonary viable bacterial count when compared with the vehicle control group” value in the series on M. tuberculosis Kurono (once daily for 28 d) was 2.5, 5, 10, and 20 mg/kg. Besides, the “Activity against intracellular M. tuberculosis H37Rv” value in [7] was “poor activity”.
In the case of `NC(=O)C(=Cc1ccc([N+](=O)[O-])o1)c1ccco1` [AF-2, 2-(2-furyl)-3-(5-nitro-2-furyl)acrylamide], the Revertants/Plate in the series on E. coli WP2 uvr A (setting [11]) is listed as 30 225 Revertants/Plate; in the series with S. typhimurium TA100 (setting [11]) it was 98 547 Revertants/Plate; in the series with S. typhimurium TA98 (S9 mix −, positive control AF-2 0.1 μg/plate) it was 29 473 Revertants/Plate.

Values taken from publication PMC1664607 (PLoS Medicine, 2006).
